Like-named read-outs stand apart in the source and are kept apart here. Blank lines part the entries; values can stand above or below the compound they belong to.
Assays:
[1] = test system: advanced gastrointestinal tumors; experiment: RGX-202 monotherapy or combination with FOLFIRI in subjects with advanced gastrointestinal tumors; format: in vivo, human
Experimental: Method: Subjects with advanced gastrointestinal tumors (e.g., locally advanced and unresectable, or metastatic) were administered multiple doses of orally administered RGX-202 as a monotherapy or in combination with irinotecan, folinic acid, and fluorouracil. In the monotherapy arm of the study, RGX-202 was administered orally twice or three times daily on days 1-28 of each 28-day cycle. The dose regimen was dependent on the cohort in which the patient was enrolled. In the combination arm of the study, RGX-202 was administered in the same way as described for the monotherapy arm in combination with FOLFIRI. FOLFIRI was administered by intravenous administration of irinotecan (180 mg/m^2) over 90 minutes concurrently with intravenous administration of folinic acid (400 mg/m^2) over 2 hours, followed by fluorouracil (5-FU) (400 mg/m^2) intravenous bolus and then 5-FU (2400 mg/m^2) intravenous infusion over 46 hours, on days 1 and 15 of each 28-day cycle. During the dose escalation, subjects were evaluated for pharmacokinetics (using the method as described in Example 1), pharmacodynamics, safety, and efficacy of the drug.

[2] = test system: animal models of noninsulin-dependent diabetes; details: animal models of noninsulin-dependent diabetes (rats, monkeys, hamsters); cited from earlier work
[3] = β-GPA plasma pharmacokinetics after RGX-202 BID dosing; format: in vivo, human; details: for AUC(0-t): read-out: Average AUC0-24
Experimental: Method: Subjects were administered RGX-202 (a highly compressible salt form of β-GPA) in a regimen of 600 mg BID, 1,200 mg BID, 2,400 mg BID, or 3,600 mg BID, and plasma samples were taken from the subjects and tested using the protocol described below for levels of β-GPA over the course of 24 hours after administration.
The analyte, β-GPA, and internal standard (IS), [13C415N3]-β-GPA, are extracted from 50.0 μL of human plasma by a protein precipitation extraction procedure. The extraction procedure begins with the addition of 50.0 μL of internal standard working solution to all wells except double blanks, which receive 50.0 μL of water. Next the plate is covered and vortexed. Then 500 μL of acetonitrile/methanol (50/50, v/v) is added to all wells. Next the plate is covered, vortexed and centrifuged. Using a Tomtec Quadra 4, 200 μL of the supernatant is transferred into a new plate. Then 300 μL acetonitrile/methanol (50/50, v/v) is added to all wells. The plate is then sealed and vortexed. The extracts are chromatographed under reverse phase conditions on a Luna HPLC column 50×2.0 mm, 3 μm column using a gradient system with 10 mM ammonium acetate in water and acetonitrile. The compounds are detected and quantified by tandem mass spectrometry in positive ion mode on a MDS Sciex API 4000 equipped with a Turbo Ionspray® interface.

Solubility of β-GPA = format: physicochemical
[4] = test system: liver metastasis in gastrointestinal cancers; details: particularly liver metastasis in gastrointestinal cancers; WO2014/071067; cited from earlier work
[5] = 1200 mg BID, human plasma, 1,200 mg BID
[6] = 2400 mg BID, human plasma, 2,400 mg BID
[7] = 3600 mg BID, human plasma, 3,600 mg BID

SMILES: [H]/N=C(\N)NCCC(=O)O [RGX-202]
- subjects exhibiting a partial response ([1]; of the 10 subjects who received the monotherapy, at 3,600 mg BID after 40 weeks): one
- subjects exhibiting stable disease ([1]; of the 10 subjects who received the monotherapy, at doses of 1,200 mg BID, 2,400 mg BID and 3,600 mg BID): three
- objective activity ([1]; subjects with advanced gastrointestinal tumors): activities were observed
- dose limiting toxicity ([1]; subjects with advanced gastrointestinal tumors, oral dose escalation, monotherapy or combination): did not exhibit dose limiting toxicity

- Cmax [3, 5]: 4790 ng/mL
- AUC(0-t) [3, 5]: 45.2 µg·h/mL
- Cmax [3, 6]: 26800 ng/mL
- AUC(0-t) [3, 6]: 165 µg·h/mL
- Cmax [3, 7]: 47700 ng/mL
- AUC(0-t) [3, 7]: 241 µg·h/mL
- AUC Dose Acc. Ratio ([3]; human plasma, 600 mg BID): 1.0
- Cmax ([3]; human plasma, 600 mg BID): 1400 ng/mL
- Cmax Dose Acc. Ratio ([3]; human plasma, 600 mg BID): 1.0
- Dose Normalized Average Cmax ([3]; human plasma, 600 mg BID): 1.2 ng/mL
- Dose-Normalized Average AUC0-24 ([3]; human plasma, 600 mg BID): 13.1 ng·h/mL
- AUC(0-t) ([3]; human plasma, 600 mg BID): 15.7 µg·h/mL
- AUC Dose Acc. Ratio ([3]; human plasma, 1,200 mg BID): 1.4
- Cmax Dose Acc. Ratio ([3]; human plasma, 1,200 mg BID): 1.7
- Dose Normalized Average Cmax ([3]; human plasma, 1,200 mg BID): 2.0 ng/mL
- Dose-Normalized Average AUC0-24 ([3]; human plasma, 1,200 mg BID): 18.8 ng·h/mL
- AUC Dose Acc. Ratio ([3]; human plasma, 2,400 mg BID): 2.7
- Cmax Dose Acc. Ratio ([3]; human plasma, 2,400 mg BID): 4.8
- Dose Normalized Average Cmax ([3]; human plasma, 2,400 mg BID): 5.6 ng/mL
- Dose-Normalized Average AUC0-24 ([3]; human plasma, 2,400 mg BID): 34.3 ng·h/mL
- AUC Dose Acc. Ratio ([3]; human plasma, 3,600 mg BID): 2.6
- Cmax Dose Acc. Ratio ([3]; human plasma, 3,600 mg BID): 5.7
- Dose Normalized Average Cmax ([3]; human plasma, 3,600 mg BID): 6.6 ng/mL
- Dose-Normalized Average AUC0-24 ([3]; human plasma, 3,600 mg BID): 33.5 ng·h/mL
- solubility in organic solvents (Solubility of β-GPA; organic solvents): low solubility
- solubility (Solubility of β-GPA; water): > 50 mg/mL
SMILES: N=C(N)NCCC(=O)O [β-GPA, β-Guanidinopropionic acid]
- effect on hyperglycemia [2]: ameliorate hyperglycemia
- suppression of metastasis [4]: effective
